According to paper PMC6548501, “Sterol transfer by atypical cholesterol-binding NPC2 proteins in coral-algal symbiosis” (eLife, 2019):

Target: T1, Aiptasia non-canonical NPC2 XM_021052404 (Exaiptasia diaphana, UniProt A0A913XQG8)
T1 construct: expressed in HEK 293T, NPC2 - five-proline linker - crmCherry - 3xHA (C-terminal), lysate, anti-HA pull-down; native protein also precipitated from Aiptasia CC7
T1 sequence (A0A913XQG8 60-190): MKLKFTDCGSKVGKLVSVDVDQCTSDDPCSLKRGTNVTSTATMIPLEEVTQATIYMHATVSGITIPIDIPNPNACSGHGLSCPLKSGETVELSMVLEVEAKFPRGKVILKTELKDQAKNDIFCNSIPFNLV
Test: immunoprecipitation-lipidomics (mass spectrometry of co-eluted sterols)
Assay type: binding
Settings: HEK 293T lysate mixed with Symbiodiniaceae SSB01 homogenate (sterol mixture), pH 7 or pH 5

CC(C)CCC[C@@H](C)[C@H]1CC[C@H]2[C@@H]3CC=C4C[C@@H](O)CC[C@]4(C)[C@H]3CC[C@]12C [cholesterol]
immunoprecipitation-lipidomics (mass spectrometry of co-eluted sterols): directly bound to cholesterol and various sterols the way other NPC2 proteins normally do
